Measured values published in US20070238694A1, “Purine compounds and methods of use thereof” (Inotek Pharmaceuticals Corporation, priority 2006, published 2007).
Like-named read-outs stand apart in the source and are kept apart here. Blank lines part the entries; values can stand above or below the compound they belong to.

Experiments:
[1] = Plasma concentration of Compound 54 after intratracheal administration (HPLC); assay type: in vivo, Sprague-Dawley rats; details: Sprague-Dawley, rat, other: intratracheal (into the trachea via intubation), 2 mg per rat, 0.2 mL of 10 mg/mL solution in saline
Experimental: (§1) A 10 mg/mL solution of Compound 54 in saline was prepared and 0.2 mL of this solution was administered into the trachea of two Sprague-Dawley rats via intubation. Blood samples were taken at 10 minutes, 30 minutes, 60 minutes and 120 minutes, post-intubation. The plasma concentration of Compound 54 was measured at each of these time points using HPLC and the peak area of the amount of Compound X in the plasma was measured at each of these time points using LC/MS.

[2] = Peak area of Compound X in plasma after intratracheal administration of Compound 54 (LC/MS); assay type: in vivo, Sprague-Dawley rats
Experimental: as §1
The peak area of Compound X correlates with the plasma concentration of this compound.

concentration at 10 min ([1]; Rat 1, 10 min post-intubation, read-out: Plasma Concentration Rat 1): 830 ng/mL
concentration at 30 min ([1]; Rat 1, 30 min post-intubation, read-out: Plasma Concentration Rat 1): 232 ng/mL
concentration at 60 min ([1]; Rat 1, 60 min post-intubation, read-out: Plasma Concentration Rat 1): 69.3 ng/mL
concentration at 120 min ([1]; Rat 1, 120 min post-intubation, read-out: Plasma Concentration Rat 1): 9.7 ng/mL
concentration at 10 min ([1]; mean of two rats, 10 min post-intubation, read-out: Mean Plasma Concentration): 728 ng/mL
concentration at 30 min ([1]; mean of two rats, 30 min post-intubation, read-out: Mean Plasma Concentration): 217 ng/mL
concentration at 60 min ([1]; mean of two rats, 60 min post-intubation, read-out: Mean Plasma Concentration): 47.6 ng/mL
concentration at 120 min ([1]; mean of two rats, 120 min post-intubation, read-out: Mean Plasma Concentration): 9.6 ng/mL
concentration at 10 min ([1]; second rat column (head printed Rat 1), 10 min post-intubation, read-out: Plasma Concentration Rat 1): 627 ng/mL
concentration at 30 min ([1]; second rat column (head printed Rat 1), 30 min post-intubation, read-out: Plasma Concentration Rat 1): 202 ng/mL
concentration at 60 min ([1]; second rat column (head printed Rat 1), 60 min post-intubation, read-out: Plasma Concentration Rat 1): 26 ng/mL
concentration at 120 min ([1]; second rat column (head printed Rat 1), 120 min post-intubation, read-out: Plasma Concentration Rat 1): 9.5 ng/mL
SMILES: CNC(=O)[C@H]1O[C@@H](n2cnc3c(NC)nc(C#N)nc32)[C@@H]2OP(=O)(O)O[C@@H]21 [Compound 54]

SMILES: CNC(=O)[C@H]1O[C@@H](n2cnc3c(NC)nc(C#N)nc32)[C@H](O)[C@@H]1O [Compound X]
Mean Peak Area ([2]; 120 min after intratracheal administration of Compound 54, Rat 2 value not available): 0.4
Peak Area Rat 1 ([2]; Rat 1, 10 min after intratracheal administration of Compound 54): 140
Peak Area Rat 1 ([2]; Rat 1, 30 min after intratracheal administration of Compound 54): 9.6
Peak Area Rat 1 ([2]; Rat 1, 60 min after intratracheal administration of Compound 54): 4.4
Peak Area Rat 1 ([2]; Rat 1, 120 min after intratracheal administration of Compound 54): 0.4
Peak Area Rat 2 ([2]; Rat 2, 10 min after intratracheal administration of Compound 54): 64
Peak Area Rat 2 ([2]; Rat 2, 30 min after intratracheal administration of Compound 54): 12
Peak Area Rat 2 ([2]; Rat 2, 60 min after intratracheal administration of Compound 54): 1.8
Mean Peak Area ([2]; mean of rats, 10 min after intratracheal administration of Compound 54): 102
Mean Peak Area ([2]; mean of rats, 30 min after intratracheal administration of Compound 54): 10.8
Mean Peak Area ([2]; mean of rats, 60 min after intratracheal administration of Compound 54): 3.1
